According to patent US20230330045A1 (priority 2020, published 2023):

Target: eel acetylcholinesterase (AChE) (Electrophorus electricus, UniProt O42275)
Test: Eel AChE fluorescence assay (AMPLEX Red kit)
Type: biochemical
Conditions: read-out: inhibition of enzyme activity compared to DMSO control (screen)
Protocol: Enzymatic reactions consisted of 50 μM acetylcholine, 200 μM AIVIPLEX™ Red reagent, 1 U/mL horseradish peroxidase, 0.1 U/mL choline oxidase and 0.096 U/mL acetylcholinesterase, with 30 1% DMSO. […] Control reactions lacking acetylcholinesterase but containing 5 μM H2O2 in presence of compounds were analyzed at the same wavelength to exclude compounds that display assay interference. Dose-response curves were performed in duplicate.

eel acetylcholinesterase (AChE), sequence (O42275 24-633): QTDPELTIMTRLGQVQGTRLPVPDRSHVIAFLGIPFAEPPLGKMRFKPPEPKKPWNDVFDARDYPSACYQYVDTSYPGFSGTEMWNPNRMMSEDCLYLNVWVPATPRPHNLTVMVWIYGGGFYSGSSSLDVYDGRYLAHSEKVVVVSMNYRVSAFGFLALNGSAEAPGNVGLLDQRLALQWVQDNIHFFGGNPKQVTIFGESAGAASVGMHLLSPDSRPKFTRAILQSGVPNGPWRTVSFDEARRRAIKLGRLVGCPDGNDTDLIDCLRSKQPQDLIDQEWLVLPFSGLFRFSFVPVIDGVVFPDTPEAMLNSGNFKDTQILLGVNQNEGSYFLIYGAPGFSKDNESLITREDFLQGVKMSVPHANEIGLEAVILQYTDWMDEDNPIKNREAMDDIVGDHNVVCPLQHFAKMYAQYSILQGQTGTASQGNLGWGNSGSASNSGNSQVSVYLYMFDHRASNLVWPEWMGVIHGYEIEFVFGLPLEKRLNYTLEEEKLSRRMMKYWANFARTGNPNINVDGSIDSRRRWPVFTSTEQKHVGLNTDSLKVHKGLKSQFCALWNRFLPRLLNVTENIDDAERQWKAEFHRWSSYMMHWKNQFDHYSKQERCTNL

CO[C@H]1/C=C/O[C@@]2(C)Oc3c(C)c(O)c4c(O)c(c5c(nc6cc(C)ccn65)c4c3C2=O)NC(=O)/C(C)=C\C=C\[C@H](C)[C@H](O)[C@@H](C)[C@@H](O)[C@@H](C)[C@H](OC(C)=O)[C@@H]1C [rifaximin]
inhibition at 20 µM: ≥ 50%
